Assay [1] is described as follows: Oral glucose tolerance test (OGTT) in rats with diet-induced obesity (Example 5). It counts as in vivo, rat. Conditions: for Glucose concentration maximum / Glucose concentration excursion (baseline to maximum): OGTT day 21, DIO rats; for Time to maximum (glucose concentration): OGTT day 21, dextrose 2 g/kg, DIO rats. Here is the method:
As part of the study described in Example 4, an oral glucose tolerance test (OGTT) was performed on day 21 of the dosing period, after a 2-4 hour fast. Dextrose (2 g/kg) was administered by oral gavage. Blood for glucose analysis was collected at 0, 15, 30, 60, 120 and 180 minutes after dextrose administration. At each time point, 0.25 ml whole blood was collected in EDTA, processed to plasma, and analyzed for blood glucose with a low-volume glucose kit.

A further assay has as its target T1, human PPARα (Homo sapiens, UniProt Q07869).
T1 construct: expressed in transfected cells; host or cells: HepG2
T1 sequence (Q07869 1-468): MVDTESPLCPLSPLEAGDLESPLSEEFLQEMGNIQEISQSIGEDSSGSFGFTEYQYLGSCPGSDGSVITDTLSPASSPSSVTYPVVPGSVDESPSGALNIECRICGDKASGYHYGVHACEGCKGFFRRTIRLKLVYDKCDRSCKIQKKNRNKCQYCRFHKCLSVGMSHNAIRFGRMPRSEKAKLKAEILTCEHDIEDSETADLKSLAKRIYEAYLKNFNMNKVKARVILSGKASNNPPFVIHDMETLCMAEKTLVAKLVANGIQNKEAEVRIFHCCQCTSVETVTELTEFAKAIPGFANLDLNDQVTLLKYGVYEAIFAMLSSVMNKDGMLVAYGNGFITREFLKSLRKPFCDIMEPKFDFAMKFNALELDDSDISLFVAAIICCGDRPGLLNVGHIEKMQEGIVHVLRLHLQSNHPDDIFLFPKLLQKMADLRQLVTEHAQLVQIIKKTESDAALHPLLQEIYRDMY
Kind of assay: PPARRE-luciferase reporter in HepG2 cells transfected with human PPARα. The assay is classed as cell-based. Conditions: retinoic acid 200 nM, read-out: EC50 activation of human PPARα (hPPARα). Here is the method:
(§1) For this study, a luciferase reporter plasmid containing 5 copies of a defined genetic regulatory PPARα response element (PPARRE) was utilized to detect romazarit-induced PPARRE activation in presence of a co-activator, retinoic acid. Specifically, HepG2 cells were transfected with expression vectors for either human or rat PPARα and the PPARRE-luciferase reporter plasmid. After 24 hours, the cells were trypsanized and subsequently seeded in 96-well clear-bottom plates at a density of 1.0×10^5 cells/ml.

Assay [2] in a line: Metabolic parameters / indicators of insulin sensitivity in normal rats (Example 9). The assay is classed as in vivo, rat. The source says:
Male Sprague-Dawley rats were provided normal chow ad libitum, both before and during the study period. […] Six rats were assigned to each treatment group (8 to the vehicle control). The study terminated on the day following administration of the seventh dose (day 8), with terminal blood collected for plasma lipid and lipoprotein analyses including LC-MS-based determination of lipid profiles, total and free cholesterol analyses, and lipoprotein cholesterol determinations (VLDL, LDL and HDL).
Adiponectin is an insulin-sensitizing protein that is abundantly expressed in adipocytes and is secreted into the circulation (see review by Lara-Castro et al. (2007) cited above).

The target in a further assay is T2, rat PPARα (Rattus norvegicus, UniProt P37230).
T2 construct: expressed in transfected cells; host or cells: HepG2
T2 sequence (P37230 1-468): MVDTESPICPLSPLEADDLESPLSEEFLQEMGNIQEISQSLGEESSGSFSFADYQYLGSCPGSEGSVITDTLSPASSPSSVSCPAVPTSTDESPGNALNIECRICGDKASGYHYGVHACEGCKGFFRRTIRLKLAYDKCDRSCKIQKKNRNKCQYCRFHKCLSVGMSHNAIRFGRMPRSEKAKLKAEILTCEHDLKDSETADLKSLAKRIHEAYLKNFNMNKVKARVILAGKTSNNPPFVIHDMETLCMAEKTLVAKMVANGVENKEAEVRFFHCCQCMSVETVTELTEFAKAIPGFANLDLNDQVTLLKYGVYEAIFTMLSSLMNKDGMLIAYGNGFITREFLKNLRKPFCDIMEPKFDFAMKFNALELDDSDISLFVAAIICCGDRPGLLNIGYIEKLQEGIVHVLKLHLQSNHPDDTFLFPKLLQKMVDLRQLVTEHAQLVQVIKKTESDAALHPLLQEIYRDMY
Kind of assay: PPARRE-luciferase reporter in HepG2 cells transfected with rat PPARα. It counts as cell-based. Conditions: retinoic acid 200 nM, read-out: EC50 activation of rat PPARα (rPPARα). Here is the method:
as §1

Structures are written as SMILES.

As to `Cc1nc(-c2ccc(Cl)cc2)oc1COC(C)(C)C(=O)O` [romazarit, 2-[[2-(4-chlorophenyl)-4-methyl-5-oxazolyl]methoxy]-2-methylpropanoic acid], in assay [1] (15 mg/kg), the Glucose concentration maximum is 230.1 mg/dL and the “Time to maximum (glucose concentration)” value was found to be 15 min. For the same compound, in assay [1] (50 mg/kg), the “Glucose concentration excursion (baseline to maximum)” value came out at 61.1 mg/dL, the Glucose concentration maximum is 203.3 mg/dL and the “Time to maximum (glucose concentration)” value was determined as 15 min. Further, in assay [1] (100 mg/kg), the “Glucose concentration excursion (baseline to maximum)” value amounted to 42.7 mg/dL, the Glucose concentration maximum was found to be 185.1 mg/dL and the “Time to maximum (glucose concentration)” value came to 60 min. Also, the EC50 on human PPARα was ~200 µM. In assay [2] (once daily p.o. 7 days), the glucose in plasma result was “appeared to lower”, the insulin in plasma result is “appeared to lower” and the plasma glucagon entry was “lowered”. Also, the plasma adiponectin result in assay [2] (once daily p.o. 7 days, 10, 50 and 100 mg/kg) is on record as “dose-dependently increased”. At rat PPARα, the EC50 was ~200 µM.

In general, EC50 refers to the concentration giving half of the maximal effect.

Values taken from patent publication US20100105746A1, “METHOD FOR TREATING METABOLIC DISEASES” (priority 2008, published 2010).
